Measured values from PMC9966181, “Polyphenols with Anti-Inflammatory Properties: Synthesis and Biological Activity of Novel Curcumin Derivatives” (International Journal of Molecular Sciences, 2023).

How the values were obtained:
Type in all cases: cell-based, C57BL/6 mice
[1] = tested on: PGE2 production; assay: Inhibition of PGE2 production in LPS-stimulated peritoneal macrophages (ELISA); conditions: for IC50: peritoneal macrophages, compounds 1 h before 10 ng/mL LPS, supernatant after 6 h, average of three independent experiments in duplicate ± S.D.; for Relative activity on PGE2 production (SAR ranking): ranking among the monofunctionalized, discussion
Method: (§1) Peritoneal macrophages were obtained four days after i.p. instillation of 2 mL of thioglycollate 3%, by peritoneal washing with chilled RPMI. Cells were seeded in RPMI with 10% FCS at 2 × 10^5/well in 96-well plates and cultured for 2 h at 37 °C in an atmosphere of 5% CO2. Cells were treated with compounds 1–15 (30 μM) 1 h before the stimulus with 10 ng/mL of LPS. For dose response experiments, cells were pre-treated with different concentrations (1, 3, 10, 30 μM) of compounds 1, 2, 4, 5, 6, 8, 10, 13, and 15 before the stimulation with 10 ng/mL of LPS. All the treatments and controls were performed in the presence of 0.5% of DMSO, as compounds are solubilized in this solvent. Supernatants were collected 6h after the stimulus with LPS.
(§2) Peritoneal macrophages were cultured as previously described. The concentrations of IL-6 were determined by ELISA (DuoSet kit, R&D System) according to the manufacturer’s protocol. The concentration of prostaglandin E2 (PGE2) was determined using the “Prostaglandin E2 ELISA Kit - Monoclonal” from Cayman CHEMICAL, according to the manufacturer’s protocol.
(§3) Results were analyzed using the statistical software package GraphPad Prism 5. Data are presented as means ± S.E.M. Statistical analysis was performed by Student’s t-test. A significant difference between groups was considered when p < 0.05. The half maximal inhibitory concentration (IC50) was calculated by adjusting a sigmoidal dose–response curve following GraphPad Prism5 procedure.

[2] = tested on: IL-6 production; assay: Inhibition of IL-6 production in LPS-stimulated peritoneal macrophages (ELISA); conditions: for IC50: peritoneal macrophages, compounds 1 h before 10 ng/mL LPS, supernatant after 6 h, average of three independent experiments in duplicate ± S.D.; for Relative activity on IL-6 production (SAR ranking): ranking in discussion; for Dose-dependent inhibition of IL-6 production: 1, 3, 10, 30 μM, 10 ng/mL LPS; for Dose-dependent inhibition of IL-6 production / Effect on production of IL-6 at single concentration: 6 h; for Effect on production of IL-6 at single concentration: 30 μM, 1 h before 10 ng/mL LPS
Method: as §1, §2, §3

[3] = tested on: Peritoneal macrophages; assay: Cytotoxicity assay (MTT) on peritoneal macrophages; conditions: 30 μM, after supernatant collection
Method: as §1
After the removal of supernatants, 100 µL of MTT (0.5 mg/mL) dissolved in RPMI were added to each well and cells were incubated overnight at 37 °C. The supernatants were removed and formazan crystals were dissolved in 100 µL of 0.04 M HCl in isopropanol. The color was analyzed at 570 nm using an ELISA plate reader. The percent of viable cells was calculated using the formula: % viability: [(OD sample) × 100%]/(OD control). The non-stimulated cells, cultured in medium plus 10% FCS and 0.5% DMSO, represented 100% viability.

[4] = Mus musculus, Peritoneal macrophage

Compound	IC50 [1, 4] [µM]	IC50 [2, 4] [µM]	Relative activity on PGE2 production (SAR ranking) [1]	Relative activity on IL-6 production (SAR ranking) [2]	Effect on production of IL-6 at single concentration [2]	also measured
4-((1E,4Z,6E)-5-Hydroxy-7-(4-hydroxy-3-methoxyphenyl)-3-oxohepta-1,4,6-trien-1-yl)-2-methoxyphenyl (1,2,3,4-tetrahydronaphthalen-1-yl) Succinate [Compound 15]			showed activity	less active		Effect on PGE2 production at 3 μM ([1]; 3 μM): significantly reduced PGE2 production; IC50 [1]: 3.07 ± 0.72 µM; IC50 [2]: 10.4 ± 0.75 µM
COc1cc(/C=C/C(O)=C/C(=O)/C=C/c2ccc(OCc3ccccc3)c(OC)c2)ccc1O [Compound 2, reference compound]	0.51 ± 0.08	3.59 ± 0.27				Effect on PGE2 production at 1 μM ([1]; 1 μM): showed an effect; Dose-dependent inhibition of PGE2 production ([1]; 1, 3, 10, 30 μM, 10 ng/mL LPS, 6 h): inhibitory effect on PGE2 production at all concentrations tested; Effect on IL-6 production at lowest concentration ([2]; 1 μM): statistically significant inhibitory effect; Dose-dependent inhibition of IL-6 production [2]: inhibited the production of IL-6 in a dose-dependent manner
COc1cc(/C=C/C(=O)/C=C(O)/C=C/c2ccc(OC(=O)CCC(=O)OC3C4CC5CC(C4)CC3C5)c(OC)c2)ccc1OC(=O)CCC(=O)OC1C2CC3CC(C2)CC1C3 (centres unmarked) [Compound 3, Di((1r,3r,5r,7r)-adamantan-2-yl) O,O′-(((1E,3Z,6E)-3-hydroxy-5-oxohepta-1,3,6-triene-1,7-diyl)bis(2-methoxy-4,1-phenylene)) Disuccinate]					did not show this activity	
COc1cc(/C=C/C(O)=C/C(=O)/C=C/c2ccc(OC(=O)CCC(=O)OC3C4CC5CC(C4)CC3C5)c(OC)c2)ccc1O (centres unmarked) [Compound 4, (1r,3r,5r,7r)-Adamantan-2-yl (4-((1E,4Z,6E)-5-hydroxy-7-(4-hydroxy-3-methoxyphenyl)-3-oxohepta-1,4,6-trien-1-yl)-2-methoxyphenyl) Succinate]	4.5 ± 3.18	10.5 ± 0.6	lowest activity	less active	inhibited the production of IL-6	
COc1cc(/C=C/C(O)=C/C(=O)/C=C/c2ccc(OC(=O)CCC(=O)OCc3ccc4c(c3)C(=O)c3ccccc3C4=O)c(OC)c2)ccc1O [Compound 5, (9,10-Dioxo-9,10-dihydroanthracen-2-yl)methyl (4-((1E,4Z,6E)-5-hydroxy-7-(4-hydroxy-3-methoxyphenyl)-3-oxohepta-1,4,6-trien-1-yl)-2-methoxyphenyl) Succinate]	2.6 ± 1.75	7.11 ± 0.75	showed activity	less active		
COc1cc(/C=C/C(=O)/C=C(O)/C=C/c2ccc(OC(=O)CCC(=O)OC(c3ccccc3)C3CCCCC3)c(OC)c2)ccc1OC(=O)CCC(=O)OC(c1ccccc1)C1CCCCC1 (centres unmarked) [Compound 7, Bis(cyclohexyl(phenyl)methyl) O,O′-(((1E,3Z,6E)-3-hydroxy-5-oxohepta-1,3,6-triene-1,7-diyl)bis(2-methoxy-4,1-phenylene)) Disuccinate]					did not show this activity	
COc1cc(/C=C/C(=O)/C=C(O)/C=C/c2ccc(OC(=O)CCC(=O)OC3c4ccccc4-c4ccccc43)c(OC)c2)ccc1OC(=O)CCC(=O)OC1c2ccccc2-c2ccccc21 [Compound 9, Di(9H-fluoren-9-yl) O,O′-(((1E,3Z,6E)-3-hydroxy-5-oxohepta-1,3,6-triene-1,7-diyl)bis(2-methoxy-4,1-phenylene)) Disuccinate]					did not show this activity	
COc1cc(/C=C/C(O)=C/C(=O)/C=C/c2ccc(OC(=O)CCC(=O)O[C@@H]3C[C@H](C)CC[C@H]3C(C)C)c(OC)c2)ccc1OC(=O)CCC(=O)O[C@H]1C[C@@H](C)CC[C@@H]1C(C)C [Compound 12, O,O′-(((1E,3Z,6E)-3-Hydroxy-5-oxohepta-1,3,6-triene-1,7-diyl)bis(2-methoxy-4,1-phenylene)) bis((1R,2S,5R)-2-isopropyl-5-methylcyclohexyl) Disuccinate]					did not show this activity	
Curcumin [Compound 1, reference compound]						IC50 [1]: 1.34 ± 0.067 µM; Cytotoxicity / cell viability (MTT) [3]: affected cell viability; Dose-dependent inhibition of IL-6 production [2]: inhibited the production of IL-6 in a dose-dependent manner; IC50 [2]: 6.85 ± 2.5 µM

The next lines start with results.

IC50 [1, 4] [µM]	IC50 [2, 4] [µM]	Compound	Relative activity on PGE2 production (SAR ranking) [1]	Relative activity on IL-6 production (SAR ranking) [2]	Effect on production of IL-6 at single concentration [2]	also measured
4.43 ± 0.85	4.21 ± 0.73	COc1cc(/C=C/C(O)=C/C(=O)/C=C/c2ccc(OC(=O)CCC(=O)OC(c3ccccc3)c3ccccc3)c(OC)c2)ccc1O [Compound 6, Benzhydryl (4-((1E,4Z,6E)-5-hydroxy-7-(4-hydroxy-3-methoxyphenyl)-3-oxohepta-1,4,6-trien-1-yl)-2-methoxyphenyl) Succinate]	showed activity		inhibited the production of IL-6	
5.9 ± 2.38	1.94 ± 0.66	COc1cc(/C=C/C(O)=C/C(=O)/C=C/c2ccc(OC(=O)CCC(=O)OC(c3ccccc3)C3CCCCC3)c(OC)c2)ccc1O (centres unmarked) [Compound 8, Cyclohexyl(phenyl)methyl (4-((1E,4Z,6E)-5-hydroxy-7-(4-hydroxy-3-methoxyphenyl)-3-oxohepta-1,4,6-trien-1-yl)-2-methoxyphenyl) Succinate]	lowest activity		not statistically significant	
5.93 ± 2.29	3.6 ± 0.21	COc1cc(/C=C/C(O)=C/C(=O)/C=C/c2ccc(OC(=O)CCC(=O)OC3c4ccccc4-c4ccccc43)c(OC)c2)ccc1O [Compound 10, 9H-Fluoren-9-yl (4-((1E,4Z,6E)-5-hydroxy-7-(4-hydroxy-3-methoxyphenyl)-3-oxohepta-1,4,6-trien-1-yl)-2-methoxyphenyl) Succinate]	lowest activity		inhibited the production of IL-6	
5.42 ± 2.04	10.6 ± 0.33	COc1cc(/C=C/C(O)=C/C(=O)/C=C/c2ccc(OC(=O)CCC(=O)O[C@@H]3C[C@H](C)CC[C@H]3C(C)C)c(OC)c2)ccc1O [Compound 13, 4-((1E,4Z,6E)-5-Hydroxy-7-(4-hydroxy-3-methoxyphenyl)-3-oxohepta-1,4,6-trien-1-yl)-2-methoxyphenyl((1R,2S,5R)-2-isopropyl-5-methylcyclohexyl) Succinate]	lowest activity	less active		
